This passage reports IC50 and Kd results from patent US10526316B2, “Quinoxaline and pyridopyrazine derivatives as PI3Kβ inhibitors” (Janssen Pharmaceutica NV, priority 2015, dated 2020).

A value given as a limit tells only on which side of the number the result lay.

Test [1] has as its system Akt phosphorylated at Ser473 in PC-3 cells. As to the kind of experiment: Cellular assay: phosphorylation of Akt at Ser473 in PC-3 cells (MSD ELISA). It counts as cell-based. Particulars: PC-3 cells, 60 min compound incubation, MSD ELISA; read-out: IC50 pAkt_S473. The gist of the method: (§1)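 Compound treatment of PC-3 cells lasted 60 min at 37° C (0.3% DMSO). Lysates were then applied to plates carrying capture antibodies for the relevant phospho-site, and bound Akt was detected with an electrochemiluminescent anti-total Akt antibody; IC50s derive from five-point curves.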

Test [2] relates to Akt phosphorylated at Thr308 in PC-3 cells. As to the kind of experiment: Cellular assay: phosphorylation of Akt at Thr308 in PC-3 cells (MSD ELISA). It counts as cell-based. To be noted: PC-3 cells, 60 min compound incubation, MSD ELISA; read-out: IC50 pAkt_Thr308. In outline: as §1
In test [3] the target is T1, PI3Kδ (Homo sapiens, UniProt O00329).
T1 construct: purchased DiscoveRx Corporation, San Diego (contract service, KINOMEscan)
T1 sequence (O00329 1-1044): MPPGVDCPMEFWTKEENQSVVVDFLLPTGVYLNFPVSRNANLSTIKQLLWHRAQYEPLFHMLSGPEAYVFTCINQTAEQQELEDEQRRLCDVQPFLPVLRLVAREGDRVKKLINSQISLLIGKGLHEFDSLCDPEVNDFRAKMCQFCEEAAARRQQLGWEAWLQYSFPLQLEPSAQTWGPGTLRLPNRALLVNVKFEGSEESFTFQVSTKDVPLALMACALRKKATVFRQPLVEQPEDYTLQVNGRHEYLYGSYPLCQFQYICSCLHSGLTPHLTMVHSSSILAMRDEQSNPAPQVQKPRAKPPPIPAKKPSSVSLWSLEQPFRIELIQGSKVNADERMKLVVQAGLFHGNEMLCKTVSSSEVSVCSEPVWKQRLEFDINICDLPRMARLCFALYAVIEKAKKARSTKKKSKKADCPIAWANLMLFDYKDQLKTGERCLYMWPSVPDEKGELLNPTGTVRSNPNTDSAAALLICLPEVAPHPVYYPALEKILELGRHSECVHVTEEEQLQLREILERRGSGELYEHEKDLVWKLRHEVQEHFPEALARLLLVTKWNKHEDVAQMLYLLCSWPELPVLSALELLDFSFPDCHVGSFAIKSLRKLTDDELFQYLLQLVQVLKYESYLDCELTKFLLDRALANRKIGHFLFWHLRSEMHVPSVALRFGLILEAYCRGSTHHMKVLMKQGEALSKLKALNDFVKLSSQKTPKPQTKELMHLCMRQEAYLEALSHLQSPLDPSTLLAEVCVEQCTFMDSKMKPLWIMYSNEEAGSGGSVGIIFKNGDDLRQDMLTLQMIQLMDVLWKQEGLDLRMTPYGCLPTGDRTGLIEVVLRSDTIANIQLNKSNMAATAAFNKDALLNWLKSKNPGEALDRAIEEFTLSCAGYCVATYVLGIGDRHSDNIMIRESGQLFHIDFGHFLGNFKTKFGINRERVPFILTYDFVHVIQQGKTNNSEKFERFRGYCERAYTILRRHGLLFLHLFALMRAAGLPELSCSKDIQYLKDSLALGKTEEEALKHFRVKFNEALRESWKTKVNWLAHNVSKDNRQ
Nature of the test: Enzyme binding assay (KINOMEscan, DiscoveRx). Particulars: PIK3Cδ_h. In outline:
(§2)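 Compounds were profiled by KINOMEscan to obtain kinase binding affinities.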

Test [4] has as its target T2, PI3Kβ (Homo sapiens, UniProt P42338).
T2 construct: purchased DiscoveRx Corporation, San Diego (contract service, KINOMEscan)
As to the kind of experiment: Enzyme binding assay (KINOMEscan, DiscoveRx). To be noted: PIK3Cβ_h, read-out: Kd PIK3Cβ_h. The gist of the method: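 Compounds are profiled for binding to the kinase using KINOMEscan. The affinity is then reported as an inhibitor Kd in nanomolar units.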

Test [5] has as its target T3, kinase enzymes (Homo sapiens, UniProt P42336).
T3 construct: purchased DiscoveRx Corporation, San Diego (contract service, KINOMEscan)
As to the kind of experiment: Enzyme binding assay (KINOMEscan, DiscoveRx), further kinases of Table A. Particulars: PIK3Cα_h. In outline: as §2

Test [6] addresses T4, kinase enzymes (Homo sapiens, UniProt P42345).
T4 construct: purchased DiscoveRx Corporation, San Diego (contract service, KINOMEscan)
The description is as above. To be noted: MTOR_h. The gist of the method:
as §2

Test [7] concerns the target T5, kinase enzymes (Homo sapiens, UniProt P48736).
T5 construct: purchased DiscoveRx Corporation, San Diego (contract service, KINOMEscan)
The description is as above. To be noted: PIK3Cγ_h. The gist of the method:
as §2

T3 sequence (P42336 whole entry): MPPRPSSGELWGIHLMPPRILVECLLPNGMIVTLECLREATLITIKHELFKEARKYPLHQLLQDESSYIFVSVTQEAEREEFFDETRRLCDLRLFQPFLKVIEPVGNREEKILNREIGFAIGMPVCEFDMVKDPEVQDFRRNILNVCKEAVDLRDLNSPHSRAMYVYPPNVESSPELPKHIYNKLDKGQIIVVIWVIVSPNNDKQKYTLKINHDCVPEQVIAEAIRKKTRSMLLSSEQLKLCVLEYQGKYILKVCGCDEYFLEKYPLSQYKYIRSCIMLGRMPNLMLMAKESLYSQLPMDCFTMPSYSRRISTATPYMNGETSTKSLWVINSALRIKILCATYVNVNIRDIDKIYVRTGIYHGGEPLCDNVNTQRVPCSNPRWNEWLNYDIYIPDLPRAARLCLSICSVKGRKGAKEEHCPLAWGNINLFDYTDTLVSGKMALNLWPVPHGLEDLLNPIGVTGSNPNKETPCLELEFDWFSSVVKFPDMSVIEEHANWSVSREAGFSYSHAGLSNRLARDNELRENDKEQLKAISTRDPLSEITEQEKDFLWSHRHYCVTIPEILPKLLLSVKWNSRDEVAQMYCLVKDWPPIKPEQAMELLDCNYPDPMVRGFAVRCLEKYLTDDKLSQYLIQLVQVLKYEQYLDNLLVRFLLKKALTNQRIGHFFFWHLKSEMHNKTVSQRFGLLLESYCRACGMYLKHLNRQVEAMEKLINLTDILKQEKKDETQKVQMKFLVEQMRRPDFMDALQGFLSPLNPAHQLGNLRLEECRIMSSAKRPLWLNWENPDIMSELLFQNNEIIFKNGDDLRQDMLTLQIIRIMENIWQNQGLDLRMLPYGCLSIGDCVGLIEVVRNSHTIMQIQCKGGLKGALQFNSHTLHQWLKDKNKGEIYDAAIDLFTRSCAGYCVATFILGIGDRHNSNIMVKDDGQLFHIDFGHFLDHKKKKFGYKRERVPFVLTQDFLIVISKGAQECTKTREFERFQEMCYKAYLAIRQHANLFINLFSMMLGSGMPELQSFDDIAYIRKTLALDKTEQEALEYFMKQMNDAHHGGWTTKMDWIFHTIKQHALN
T2 sequence (P42338 whole entry): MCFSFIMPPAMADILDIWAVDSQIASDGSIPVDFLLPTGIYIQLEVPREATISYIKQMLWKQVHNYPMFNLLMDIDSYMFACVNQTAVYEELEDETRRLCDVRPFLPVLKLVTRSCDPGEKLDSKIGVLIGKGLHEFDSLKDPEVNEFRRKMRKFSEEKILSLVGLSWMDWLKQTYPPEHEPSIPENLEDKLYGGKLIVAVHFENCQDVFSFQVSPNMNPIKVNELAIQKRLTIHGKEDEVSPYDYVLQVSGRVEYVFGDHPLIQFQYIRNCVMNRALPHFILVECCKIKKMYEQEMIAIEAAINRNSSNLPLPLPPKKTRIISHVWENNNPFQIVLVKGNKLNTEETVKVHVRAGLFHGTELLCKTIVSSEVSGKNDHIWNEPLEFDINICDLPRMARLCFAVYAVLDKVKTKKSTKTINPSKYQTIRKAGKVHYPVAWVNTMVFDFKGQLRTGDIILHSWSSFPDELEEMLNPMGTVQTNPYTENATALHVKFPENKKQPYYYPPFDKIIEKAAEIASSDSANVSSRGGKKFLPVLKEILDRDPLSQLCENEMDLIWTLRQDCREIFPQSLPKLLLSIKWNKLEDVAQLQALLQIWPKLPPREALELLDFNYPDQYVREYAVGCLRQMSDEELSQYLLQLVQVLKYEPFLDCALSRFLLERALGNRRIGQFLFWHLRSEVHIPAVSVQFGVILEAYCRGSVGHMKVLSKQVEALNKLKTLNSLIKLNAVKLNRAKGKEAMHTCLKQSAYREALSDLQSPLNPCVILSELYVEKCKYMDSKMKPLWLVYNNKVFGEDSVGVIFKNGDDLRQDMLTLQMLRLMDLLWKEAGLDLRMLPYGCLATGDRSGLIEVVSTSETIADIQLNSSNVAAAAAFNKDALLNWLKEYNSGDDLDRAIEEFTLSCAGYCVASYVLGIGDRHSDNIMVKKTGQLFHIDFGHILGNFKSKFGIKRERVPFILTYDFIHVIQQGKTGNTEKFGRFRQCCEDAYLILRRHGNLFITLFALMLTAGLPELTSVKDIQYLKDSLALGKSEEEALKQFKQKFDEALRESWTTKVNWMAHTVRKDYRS
T5 sequence (P48736 whole entry): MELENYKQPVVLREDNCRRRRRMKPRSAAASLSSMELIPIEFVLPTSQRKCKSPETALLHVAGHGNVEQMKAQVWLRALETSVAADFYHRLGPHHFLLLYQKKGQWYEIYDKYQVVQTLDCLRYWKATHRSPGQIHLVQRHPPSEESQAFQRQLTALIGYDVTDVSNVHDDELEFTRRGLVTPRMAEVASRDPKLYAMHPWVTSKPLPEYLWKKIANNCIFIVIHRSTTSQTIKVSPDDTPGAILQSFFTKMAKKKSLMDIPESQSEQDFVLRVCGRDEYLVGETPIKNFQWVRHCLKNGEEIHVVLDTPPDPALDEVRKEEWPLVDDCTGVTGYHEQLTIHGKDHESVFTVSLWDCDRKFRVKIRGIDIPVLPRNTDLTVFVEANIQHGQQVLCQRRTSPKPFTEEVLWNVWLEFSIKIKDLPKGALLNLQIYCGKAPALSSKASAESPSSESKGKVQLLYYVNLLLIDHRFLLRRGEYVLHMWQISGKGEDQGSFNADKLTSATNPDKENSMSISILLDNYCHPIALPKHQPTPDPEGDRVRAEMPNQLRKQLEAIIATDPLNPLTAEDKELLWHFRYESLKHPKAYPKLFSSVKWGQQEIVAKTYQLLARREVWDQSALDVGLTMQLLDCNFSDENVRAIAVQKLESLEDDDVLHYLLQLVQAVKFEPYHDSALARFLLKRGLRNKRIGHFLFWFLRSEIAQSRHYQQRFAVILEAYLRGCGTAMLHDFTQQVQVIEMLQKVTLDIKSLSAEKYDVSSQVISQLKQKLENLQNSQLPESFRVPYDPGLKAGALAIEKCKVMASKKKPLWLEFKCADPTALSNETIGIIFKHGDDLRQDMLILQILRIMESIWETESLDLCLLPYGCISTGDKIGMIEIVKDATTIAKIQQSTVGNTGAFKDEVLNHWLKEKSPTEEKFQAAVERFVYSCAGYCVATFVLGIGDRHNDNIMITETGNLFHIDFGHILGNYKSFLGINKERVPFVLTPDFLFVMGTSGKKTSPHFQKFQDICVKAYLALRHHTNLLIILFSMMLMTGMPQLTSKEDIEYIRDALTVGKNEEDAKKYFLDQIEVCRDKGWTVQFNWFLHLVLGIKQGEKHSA

As for `CC(Nc1cc(F)c(F)c(F)c1)c1cc(C(=O)NCC(C)(C)O)cc2ncc(N3CCOCC3)nc12` (single isomer, unassigned) [Compound 292b], the IC50 in test [1] and in test [2] was greater than 513 nM in each case. Also, the Kd in test [3] is greater than 30200 nM; in test [4], 14800 nM; in test [5], greater than 30200 nM; in test [6], greater than 30200 nM; in test [7] it was greater than 30200 nM.
`Cc1ccc(NC(C)c2cc(C(=O)NCCO)cc3ncc(N4CCOCC4)nc23)cc1F` (single isomer, unassigned) [Compound 295a]: the IC50 in test [1] and in test [2] was greater than 513 nM throughout. For the same compound, the dissociation constant (Kd) in test [3] was 6760 nM; in test [4], 288 nM; in test [5], 6460 nM; in test [6] it was 14500 nM; in test [7] it was greater than 30200 nM.
Consider `CC(Nc1cc(F)c(F)c(F)c1)c1cc(C(=O)N(C)C2CCNC2)cc2ncc(N3CCOCC3)nc12` (single isomer, unassigned) [Compound 296a], for which the IC50 in test [1] is 23 nM; in test [2], 16 nM. In addition, the Kd in test [3] was 170 nM; in test [4] it was 1 nM; in test [5], 1380 nM; in test [6], greater than 30200 nM; in test [7] it was 3240 nM.
Regarding `CC(Nc1cc(F)c(F)c(F)c1)c1cc(C(=O)N(C)C2CCNC2)cc2ncc(N3CCOCC3)nc12` (single isomer, unassigned) [Compound 296b], the values for the IC50 in test [1] and in test [2] were 468 nM and 339 nM, respectively. Also, the Kd in test [3] was 9330 nM; in test [4], 14 nM; in test [5], greater than 30200 nM; in test [6] it was greater than 30200 nM; in test [7], greater than 30200 nM.
For `CN[C@H]1CCN(C(=O)c2cc(C(C)Nc3cc(F)c(F)c(F)c3)c3nc(N4CCOCC4)cnc3c2)C1` (single isomer, unassigned) [Compound 297a], the IC50 in test [1] was determined as 200 nM; in test [2], 204 nM. Also, the Kd in test [3] was 6310 nM; in test [4] it was 26 nM; in test [5] it was 17000 nM; in test [6] it was greater than 30200 nM; in test [7] it was 15100 nM.
As for `CN[C@H]1CCN(C(=O)c2cc(C(C)Nc3cc(F)c(F)c(F)c3)c3nc(N4CCOCC4)cnc3c2)C1` (single isomer, unassigned) [Compound 297b], the IC50 in test [1] worked out at 7 nM; in test [2], 3 nM. Besides, the Kd in test [3] is 112 nM; in test [4], 0.5 nM; in test [5], 1020 nM; in test [6], greater than 30200 nM; in test [7], 1480 nM.
On to `CC(Oc1ccc(F)c(F)c1)c1cc(C(=O)N2CC[C@@H](N(C)C)C2)cc2ncc(N3CCOCC3)nc12` (single isomer, unassigned) [Compound 298b], for which the IC50 in test [1] is 501 nM; in test [2], greater than 513 nM. For the same compound, the Kd in test [3] is 10200 nM; in test [4], 186 nM; in test [5], 24000 nM; in test [6] it was greater than 30200 nM; in test [7] it was greater than 30200 nM.
For `CC(Oc1ccc(F)c(F)c1)c1cc(C(=O)NCCN(C)C)cc2ncc(N3CCOCC3)nc12` (single isomer, unassigned) [Compound 299a], the figures for the IC50 in test [1] and in test [2] were roughly 45 nM and 56 nM, respectively. Further, the dissociation constant (Kd) in test [3] is 269 nM; in test [4], 1 nM; in test [5] it was 6310 nM; in test [6], greater than 30200 nM; in test [7], 11000 nM.
`CC(Nc1ccc(F)c(F)c1)c1cc(C(=O)N2CCC[C@H](O)C2)cc2ncc(N3CCOCC3)nc12` (single isomer, unassigned) [Compound 302b]: the figures for the IC50 in test [1] and in test [2] were 54 nM and 39 nM, respectively. Also, the Kd in test [3] was 186 nM; in test [4], 3 nM; in test [5], 1100 nM; in test [6] it was greater than 30200 nM; in test [7], 11700 nM.
